# Assay results reported in US10894087B2, “Multi-arm polymeric prodrug conjugates of cabazitaxel-based compounds” (Nektar Therapeutics, priority 2010, dated 2021).
# Read-outs that look alike come from different tables or passages of the source.
# Assays:
# [1] = Maximum tolerated dose (MTD) study of PEGylated conjugates of cabazitaxel in athymic mice; type: in vivo, female athymic nu/nu mice; details: qw x 3, iv; for Treatment-Related Deaths: N=5
# Method: Purpose. This study was performed to determine appropriate doses of each compound for tumor xenograft studies. In those studies, it is desirable to administer the maximum dose of test compound that will not cause excessive loss of body weight. In general, loss of ˜15% of the initial body weight of the animal is typically the maximum desired.
# Experimental procedure. MTD for 4-arm-conjugated to cabazitaxel were determined in female athymic nu/nu mice using standard methods. Briefly, 8-12 week old mice were administered test compounds or cabazitaxel intravenously at one week intervals for a total of three doses per mouse (qw×3, iv) as shown in Tables 1 and 2. For all PEG-conjugated test compounds, the doses of both the conjugate and released cabazitaxel, calculated from the cabazitaxel content of the respective conjugate, are shown. […] PEG-cabazitaxel conjugates were prepared in D5W. […] Mice were observed daily for clinical signs and body weights were recorded on days 1-5 and then biweekly until the end of study. All procedures were conducted in compliance with IACUC requirements. […] For any group with two measurements of mean body weight loss of greater than 20%, dosing was stopped and recovery was allowed. Within a group with greater than 20% mean weight loss, individual animals greater than 30% body weight loss were euthanized. Compound dosing was terminated for any group in which mean weight loss exceeded 20% or >10% of animals died. Moribund animals were euthanized and all animals were euthanized at end of study (day 30).
# Results. The results for the study MTD “20K Conjugates” are summarized in Table 3 and FIG. 1 while the results for the MTD “30K and 40K Conjugates” study are summarized Table 4 and FIG. 2. […] It should be noted that this is not meant to be a definitive MTD, but is simply a guide to select an appropriate dose for conducting tumor xenograft studies using this administration route and schedule. Note too, that these MTD are given as cabazitaxel equivalents. The actual dose of each conjugate must be corrected for the wt % of cabazitaxel in that specific conjugate.
# [2] = system: H460 non-small cell lung cancer (NSCLC) implants; details: iv; for % TGD / Median TTE (Median Time to Endpoint) / TGD (tumor growth delay compared to vehicle) / CR (Number of Complete Regressions) / Deaths / PR (Number of Partial Regressions) / TFS (Number of Tumor Free Survivors) / MTV (Median Tumor Volume): qwk x 3; for CR (Number of Complete Regressions) / Deaths / PR (Number of Partial Regressions) / TFS (Number of Tumor Free Survivors): N=10; for BW Nadir (d), day of nadir: mouse, in vivo
# Method: Purpose. Studies were conducted to assess the growth inhibitory effects of PEGylated-conjugates of cabazitaxel on H460 non-small cell lung cancer (NSCLC) implants in athymic nu/nu mice.
# Experimental plan. These studies were conducted using routine methods and materials that are familiar to those skilled in the art. Briefly, 8 to 12 week old female nu/nu mice were injected subcutaneously in the flank with 1×10^7 H460 tumor cells in 0.2 mL sterile buffer. […] Animals received three intravenous doses of test article at one week intervals beginning on day 1. Cabazitaxel solutions were prepared in D5W containing 5% Tween 80:10% ethanol. PEG-cabazitaxel conjugates were prepared in D5W. The administration volume for all test articles was 10 mL/kg. The test doses were selected to represent the MTD and ½ the MTD for each test compound. The tables list the actual mg/kg for each test article and the corresponding cabazitaxel equivalent calculated based on the weight-percent cabazitaxel content for each PEGylated conjugate.
# Animals were weighed on days 1-5, 7, 9, 11, 13 then biweekly until the end of the study. Tumor sizes were measured using calipers biweekly throughout the study and tumor volumes were calculated using the formula for an ellipsoid sphere: L×W^2/2=mm^3, where L and W are the major axis dimensions of the tumor in mm. Additional parameters that were monitored were the number of non-specific deaths, number of partial and complete tumor regressions, number of tumor-free survivors, and the time required for individual animals' tumors to reach 2000 mm^3. The median time for a tumor to reach 2000 mm^3 in the treatment groups (T) and control group (C) was used to calculate of the overall delay in the growth of the median tumor (TGD). Animals were monitored individually until reaching the experimental endpoint: tumor size of 2000 mm^3 or 45 days, whichever came first. […] When the study endpoint was reached, the animals were euthanized.
# [3] = mainly by the CYP3A4/5 isozyme; cited from earlier work
# [4] = MTD study 20K conjugates, 7.5 mg/kg cabazitaxel eq.
# [5] = MTD study 20K conjugates, 15 mg/kg cabazitaxel eq.
# [6] = MTD study 20K conjugates, 30 mg/kg cabazitaxel eq.
# [7] = 20K conjugate xenograft study, 12.5 mg/kg cabazitaxel eq.
# [8] = 20K conjugate xenograft study, 25 mg/kg cabazitaxel eq.
# [9] = MTD study 30K and 40K conjugates, 30 mg/kg cabazitaxel eq.
# [10] = 20K conjugate xenograft study, 15 mg/kg cabazitaxel eq.
# [11] = 20K conjugate xenograft study, 30 mg/kg cabazitaxel eq.
# [12] = 30K and 40K conjugate xenograft study, 15 mg/kg cabazitaxel eq.
# [13] = 30K and 40K conjugate xenograft study, 30 mg/kg cabazitaxel eq.
compound,measurement,setting,value
4-ARM-PEG20K-Acetate-Linked Cabazitaxel [4-arm-PEG20K-CM-Cabazitaxel],BW Nadir,[1]; [4],−3.4%
same,BW Nadir (day),[1]; [4],3 days
same,Treatment-Related Deaths,[1]; [4],0
same,BW Nadir,[1]; [5],−2.0%
same,BW Nadir (day),[1]; [5],3 days
same,Treatment-Related Deaths,[1]; [5],0
same,BW Nadir,[1]; [6],−10.2%
same,BW Nadir (day),[1]; [6],23 days
same,Treatment-Related Deaths,[1]; [6],0
same,"Estimated MTD, cabazitaxel equivalents","[1]; athymic nu/nu mice, guide value, not a definitive MTD",25 mg/kg
same,% TGD,[2]; [7],99%
same,Median TTE (Median Time to Endpoint),[2]; [7],36.8 days
same,TGD (tumor growth delay compared to vehicle),[2]; [7],18.3 days
same,CR (Number of Complete Regressions),[2]; [7],0
same,Deaths,[2]; [7],0
same,PR (Number of Partial Regressions),[2]; [7],0
same,TFS (Number of Tumor Free Survivors),[2]; [7],0
same,% TGD,[2]; [8],154%
same,MTV (Median Tumor Volume),[2]; [8],358 mm^3
same,TGD (tumor growth delay compared to vehicle),[2]; [8],28.5 days
same,CR (Number of Complete Regressions),[2]; [8],0
same,Deaths,[2]; [8],0
same,PR (Number of Partial Regressions),[2]; [8],10
same,TFS (Number of Tumor Free Survivors),[2]; [8],0
"CO[C@H]1C(=O)[C@]2(C)[C@@H](OC)C[C@H]3OC[C@@]3(OC(C)=O)[C@H]2[C@H](OC(=O)c2ccccc2)[C@]2(O)C[C@H](OC(=O)[C@H](O)[C@@H](NC(=O)OC(C)(C)C)c3ccccc3)C(C)=C1C2(C)C [Cabazitaxel, (2α,5β,7β,10β,13α-4-acetoxy-13-({(2R,3S)-3-[(tertbutoxycarbonyl)amino]-2-hydroxy-3-phenylpropanoyl}oxy)-1-hydroxy-7,10-dimethoxy-9-oxo-5,20-epoxytax-11-en-2-yl benzoate]",BW Nadir,[1]; [6],−15.4%
same,BW Nadir (day),[1]; [6],20 days
same,Treatment-Related Deaths,[1]; [6],0
same,BW Nadir,[1]; [9],−6.8%
same,BW Nadir (day),[1]; [9],21 days
same,Treatment-Related Deaths,[1]; [9],0
same,% TGD,[2]; [10],52%
same,MTV (Median Tumor Volume),[2]; [10],1764 mm^3
same,Median TTE (Median Time to Endpoint),[2]; [10],28.1 days
same,TGD (tumor growth delay compared to vehicle),[2]; [10],9.6 days
same,CR (Number of Complete Regressions),[2]; [10],0
same,Deaths,[2]; [10],0
same,PR (Number of Partial Regressions),[2]; [10],0
same,TFS (Number of Tumor Free Survivors),[2]; [10],0
same,% TGD,[2]; [11],154%
same,MTV (Median Tumor Volume),[2]; [11],918 mm^3
same,TGD (tumor growth delay compared to vehicle),[2]; [11],28.5 days
same,CR (Number of Complete Regressions),[2]; [11],0
same,Deaths,[2]; [11],0
same,PR (Number of Partial Regressions),[2]; [11],3
same,TFS (Number of Tumor Free Survivors),[2]; [11],0
same,% TGD,[2]; [12],87%
same,Median TTE (Median Time to Endpoint),[2]; [12],27.9 days
same,TGD (tumor growth delay compared to vehicle),[2]; [12],13 days
same,CR (Number of Complete Regressions),[2]; [12],0
same,Deaths,[2]; [12],0
same,PR (Number of Partial Regressions),[2]; [12],0
same,TFS (Number of Tumor Free Survivors),[2]; [12],0
same,% TGD,[2]; [13],208%
same,MTV (Median Tumor Volume),[2]; [13],994 mm^3
same,TGD (tumor growth delay compared to vehicle),[2]; [13],31.1 days
same,CR (Number of Complete Regressions),[2]; [13],0
same,Deaths,[2]; [13],0
same,PR (Number of Partial Regressions),[2]; [13],5
same,TFS (Number of Tumor Free Survivors),[2]; [13],0
same,"BW Nadir (d), day of nadir",[2]; 15 mg/kg,(22) d
same,"BW Nadir (d), day of nadir",[2]; 30 mg/kg,(22) d
same,Extent metabolized in the liver,[3],> 95%
